The results in this text go back to publication PMC12176268, “Structural Features and Photophysical and Antiproliferative Properties of Me2N‑pbt-Cycloplatinated Complexes with Picolinate Ligands” (Inorganic Chemistry, 2025).

Test [1] concerns MDA-MB-231 cells. The test can be described thus: Intracellular ROS production with H2DCFDA probe. It counts as cell-based, human. As for the experimental part:
Cyclometalated complexes of various metals, including Ir(III), Rh(III), Pt(II), and Au(III), have been reported to induce overproduction of reactive oxygen species (ROS), inducing oxidative stress leading to cell death. […] Following the protocol used for cytotoxicity assays, cells were incubated with 3 for 4 h in the dark at 37 °C (dark conditions) or incubated with 3 for 4 h in the dark at 37 °C, followed by 5 min of irradiation at 450 nm (irradiation conditions). ROS production was measured using the nonspecific ROS probe 2′,7′-dichlorodihydrofluorescein diacetate (H2DCFDA) (Figures and S36).
11 ROS production upon incubation of MDA-MB-231 cells for 4 h at 37 °C (dark) or for 4 h at 37 °C + 5 min irradiation at 450 nm (irradiation) with complex 3 (5, 2, 1, or 0.5 μM), expressed as the mean fluorescence intensity normalized to DMSO negative controls. […]
Triple-negative breast cancer cells MDA-MB-231 were seeded in 6-well plates at a concentration of 150 000 cells/well in 1.5 mL DMEM (Dulbecco’s modified Eagle’s medium) containing GlutaMax I supplemented with 10% FBS. […] Microscopy images were recorded in brightfield and GFP filter modes using an EVOS M5000 microscope with a 10× objective. Cell confluency was assessed on the brightfield images using EVOS M5000 microscope software, and quantification of green fluorescence was performed using Fiji software. […]

Test [2] has as its target bovine serum albumin (BSA) (Bos taurus, UniProt P02769). The test is described as follows: Quenching of intrinsic BSA fluorescence (Stern–Volmer, binding constant). As to conditions: 5 μM BSA, 20 mM PB pH 7.4, 1% DMSO, 1 h room temperature. On the procedure:
In order to further characterize the interactions between complex 3 and BSA, we monitored the evolution of the intrinsic emission band of BSA upon excitation at 290 nm, attributed to the Trp213 residue located in the hydrophobic domain IIA, in the presence of an increasing concentration of complex 3. Briefly, the emission spectra of solutions containing 5 μM BSA dissolved in 20 mM PB buffer (pH 7.4) containing 1% DMSO incubated for 1 h at room temperature with concentrations of 3 ranging from 1 to 100 μM (Figure S33A) were recorded. […] The kinetics of the intermolecular quenching processes follow the Stern–Volmer eq : 2 F0/F=1+Ksv[3] where F 0 is the fluorescence intensity of pure BSA, F is the fluorescence intensity after the addition of 3, and K SV is the Stern–Volmer dynamic quenching efficiency (Figure S33B). K SV (eq ) can be expressed as the product of the quenching rate k q and the average lifetime of the fluorophore τ0 in the excited state, which is typically 10^–8 s. 3 KSV=kqτ0
The linear Stern–Volmer plot can be indicative of either a dynamic or static quenching mechanism.
It is further possible to determine the number of binding sites (n) and the binding constant (Kb) by plotting log((F0-F)/F) vs log([3]) (Figure S33C) according to eq . 4 log(F0−F/F)=logKb+nlog[3] […]

bovine serum albumin (BSA), sequence (P02769 25-607): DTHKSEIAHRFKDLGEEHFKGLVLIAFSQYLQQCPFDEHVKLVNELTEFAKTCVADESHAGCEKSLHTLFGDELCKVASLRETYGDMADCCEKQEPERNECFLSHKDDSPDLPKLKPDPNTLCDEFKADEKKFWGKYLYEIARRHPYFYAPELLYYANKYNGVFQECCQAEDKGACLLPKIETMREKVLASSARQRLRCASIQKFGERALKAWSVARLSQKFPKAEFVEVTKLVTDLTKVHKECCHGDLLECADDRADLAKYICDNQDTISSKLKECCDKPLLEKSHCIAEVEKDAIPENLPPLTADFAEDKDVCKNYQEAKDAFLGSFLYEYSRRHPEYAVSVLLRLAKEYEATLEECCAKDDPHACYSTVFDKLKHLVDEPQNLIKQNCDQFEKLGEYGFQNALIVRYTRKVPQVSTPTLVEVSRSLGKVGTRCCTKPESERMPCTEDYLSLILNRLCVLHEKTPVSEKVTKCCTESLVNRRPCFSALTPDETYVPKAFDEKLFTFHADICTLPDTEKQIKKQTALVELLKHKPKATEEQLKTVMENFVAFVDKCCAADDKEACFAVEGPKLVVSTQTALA

In the case of “[Pt(Me2N-pbt)(3-OH-pic-κN,O)] [Complex 3]”, the “ROS production (H2DCFDA green fluorescence), dark” value in test [1] (MDA-MB-231, 0.5, 1, 2 or 5 μM, 4 h at 37 °C in the dark) was “dose-dependent increase of green fluorescence”. Also, the “ROS production (H2DCFDA green fluorescence), irradiation versus dark” value in test [1] (MDA-MB-231, 4 h at 37 °C + 5 min irradiation at 450 nm) is listed as “statistically significant increase of ROS production”. Further, the “number of binding sites (n) on BSA” value in test [2] came to 0.9 ± 0.07. Further, the “quenching rate kq of BSA fluorescence” value in test [2] (λexc 290 nm, τ0 10^–8 s) is 2.21 ± 0.12 × 10^12 M^–1.s^–1.
